Experimental data: PubChem BioAssay AID179 (DTP/NCI, 2004)
Several values for one entry are separate records, joined by “and”; a condition that tells them apart may be missing. Equal entries are not always repeated. Activity calls are given as the source filed them.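 Rule for the calls: active = compounds giving half or more protection of infected cells from virus-caused growth loss, again on retest; inactive = the rest.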

Tested on: CEM cells HIV-1 protection, formazan growth assay
Experiment: NCI AIDS Antiviral Assay
Conditions: for IC50: measured here: growth of uninfected CEM cells
Description: The ability of compounds to protect human CEM cells from HIV-1 infection is measured as a screen for new compounds capable of inhibiting the HIV virus. Five concentrations of drug were tested on uninfected and infected cells and cell growth was measured using a soluble formazan assay. […] Compounds that provided at least 50% protection were retested. Compounds that provided at least 50% protection on retest were listed as moderately active. Compounds that reproducibly provided 100% protection were listed as confirmed active. […] Note that the inability to provide protection could be due to toxicity.

Compound	EC50	IC50	outcome
COc1ccc2c(c1)OCC1(O)Cc3ccccc3OC21 (stereo not drawn)	> 200 µM	107 µM	–
CCc1cc(CCC(=O)Nc2c(C)cccc2C)[nH]n1	> 912 µM	> 912 µM	–
O=[N+]([O-])c1ccc(CSSCc2ccc([N+](=O)[O-])cc2)cc1	> 200 µM	17.8 µM	–
C/C(=N\N=C(\[Se])N1CCN(c2ccccn2)CC1)c1ccccn1	> 36.3 µM	0.0155 µM	–
CC(C)(C)c1cc(C2COC(c3cc(C(C)(C)C)c(O)c(C(C)(C)C)c3)CO2)cc(C(C)(C)C)c1O (stereo not drawn)	> 50.1 µM	> 50.1 µM	–
O=C1/C(=C/c2ccc(O)cc2)CCc2ccccc21	> 200 µM	20.9 µM	–
NCC1(N2CCOCC2)C2CCCC21CNc1ccccc1 (stereo not drawn)	> 24 µM	> 24 µM	–
CCOC(=O)C(C)(C)C(OP(=S)(OCC)OCC)=C(C)C	> 3.09 µM	> 3.09 µM	–
Fc1ccc(N=C2C=CC(=Nc3ccc(F)cc3)c3ccccc32)cc1	–	–	inactive
O=C1OCC/C1=C\c1ccc2c(c1)OCO2	> 45.7 µM	> 45.7 µM	–
Nc1scc2[nH]c3ccccc3[n+]12	> 200 µM	15.5 µM	–
Nc1nc2n(nc[n+]2CCP(=O)(O)O)c(=O)[nH]1	–	–	inactive
Clc1ccc(CCc2ccncn2)c(Cl)c1	> 398 µM	38 µM	–
N/C(CCCC/C(N)=N/O)=N\O	> 200 µM	> 200 µM	–
Cn1c2nc(=Nc3ccc(Cl)cc3)n3ccc4ccccc4c3c2c(=O)n1-c1ccccc1	> 200 µM	158 µM	–
O=C(O)CC[n+]1ccccc1	> 200 µM	> 200 µM	–
Nc1ccc2c(SCC(=O)Nc3ccccc3-c3ccccc3NC(=O)CSc3c4ccccc4nc4cc(N)ccc34)c3ccccc3nc2c1	> 7.24 µM	> 7.24 µM	–
Cn1c(=O)c2nncnc2n(C)c1=O	> 200 µM	> 200 µM	–
CCOc1ccc(N=Cc2ccc3cc(C)ccc3n2)cc1	–	–	inactive
Cc1ccc(NC(=O)/C(=N/NC(=O)C[N+](C)(C)C)c2nc3ccccc3[nH]c2=O)cc1	> 186 µM	120 µM	–
Nc1cc(Nc2ccc(Cl)[nH]c2=S)nc(N)n1	> 186 µM	5.75 µM	–
CC(=O)N1C(=O)CC23c4cccc([N+](=O)[O-])c4C(=O)N2CCCN13 (stereo not drawn)	> 398 µM	> 398 µM	–

Compound	EC50	IC50	outcome
CC(C)(O)CCC(=O)[C@](C)(O)[C@H]1[C@H](O)C[C@@]2(C)[C@@H]3CC=C4[C@@H](C[C@@H](O)[C@@H](O)C4(C)C)[C@]3(C)C(=O)C[C@]12C	> 200 µM	> 200 µM	–
COC(=O)C(C(=O)C(=O)Nc1ccc(C)cc1C)c1nc2ccc([N+](=O)[O-])cc2[nH]c1=O (stereo not drawn)	> 575 µM	129 µM	–
COc1ccc2nc3cccc([N+](=O)[O-])c3c(NCCNCCN(C)C)c2c1	> 2 µM	0.105 µM	–
CC1(C)OC2C3CC(C2O1)C1C3C2(Cl)CC1(Cl)C(Cl)=C2Cl (stereo not drawn)	–	–	inactive
CC(C)(C)c1cc2c(O)c(c1)C(c1ccccc1)c1cc(C(C)(C)C)cc(c1O)Cc1cc(C(C)(C)C)cc(c1O)C(c1ccccc1)c1cc(C(C)(C)C)cc(c1O)C2 (stereo not drawn)	> 50.1 µM	> 50.1 µM	–
OC(C/C=N/Nc1ccccc1)(C(F)(F)Cl)C(F)(F)Cl	> 200 µM	10 µM	–
COC1/C=C/OC2(C)Oc3c(C)c(O)c4c(O)c(c(/C=N/n5cnc6c(ncn6C6OC(CO)C(O)C6O)c5=O)c(O)c4c3C2=O)NC(=O)/C(C)=C\C=C\C(C)C(O)C(C)C(O)C(C)C(OC(C)=O)C1C (stereo not drawn)	> 200 µM	66.1 µM	–
COC(=O)Nc1cn2cc(C(=O)c3cccs3)ccc2n1	> 9.12 µM	0.0331 µM	–
Cc1ccc(C(=O)Nc2ccc(CP(=O)(O)O)cc2)cc1NC(=O)c1cccc(NC(=O)Nc2cccc(C(=O)Nc3cc(C(=O)Nc4ccc(CP(=O)(O)O)cc4)ccc3C)c2)c1	16.6 µM	50.1 µM	–
O=C1C(=O)N(c2ccc(Cl)cc2)C(=O)C(=O)C1c1nc2ccccc2o1	–	–	inactive
C#CC(C)(C)OCCCCOc1cc(O)c2c(=O)c3ccccc3n(C)c2c1	> 3.8 µM	> 3.8 µM	–
N#Cc1c(-c2ccco2)cc(-c2ccc(N)cc2)[nH]c1=O	> 25.7 µM	> 25.7 µM	–
COc1ccc(Oc2c(OC)cc(NCc3ccc(CN)cc3)c3ncccc23)cc1	> 200 µM	27.5 µM	–
COc1ccc(-c2nc(SC)n(C3OC(COC(C)=O)C(OC(C)=O)C(OC(C)=O)C3OC(C)=O)c(=O)c2C#N)cc1 (stereo not drawn)	> 200 µM	41.7 µM and 46.8 µM	–
COC(=O)C12N=NN(c3ccccc3)C1(C(=O)OC)C1CCC2C1 (stereo not drawn)	> 200 µM	> 200 µM	–
C=CCNC(=O)N(CCC)CCCCC(NC(C)=O)C(=O)NCc1ccccc1 (stereo not drawn)	> 89.1 µM	> 89.1 µM	–
Cc1cc2n[n+]3[n-]cc(-c4ccccc4)n3c2cc1[N+](=O)[O-]	> 200 µM	> 200 µM	–
C1CSCCSCCSCCSCCSCCS1	> 14.5 µM	> 14.5 µM	–
O=Nc1ccc(C=C2C(=O)C=CC2=O)cc1	> 200 µM	10.2 µM	–
Cn1c2ccccc2c2n[nH]c(=S)nc21	55 µM	> 200 µM	–
Oc1[nH]c2ccccc2c1N=NC(=S)N1CCCCCC1	> 200 µM	1.32 µM	–
Cc1nn(-c2ccc([N+](=O)[O-])cc2)c2c1C(C)(C)C(C#N)=C(N)O2	> 200 µM	> 200 µM	–

Compound	EC50	IC50	outcome
CC1CN1SSN1CC1C (stereo not drawn)	> 200 µM	182 µM	–
O=S(=O)(O)c1cc(S(=O)(=O)O)c2c(N=Nc3ccc(N=Nc4ccccc4)cc3)c(O)ccc2c1	> 100 µM	> 100 µM	–
COc1ccc(-c2cn3ccsc3n2)cc1	> 195 µM	162 µM	–
COC(=O)/C=C/C1C(C(=O)OC)C2(C(=O)OC)CCC1(C(=O)OC)N2 (stereo not drawn)	–	–	inactive
CC1=CC(=O)N(n2c(Cc3ccccc3)n[nH]c2=O)C1=O	> 200 µM	> 200 µM	–
CC(C)c1cc(C(C)C)c(S(=O)(=O)N/N=C2\CC3CCC2(C)C3(C)C)c(C(C)C)c1 (stereo not drawn)	> 200 µM	18.6 µM	–
N#Cc1nc(-c2ccccn2)oc1N	> 200 µM	> 200 µM	–
Clc1cc2c(c(CSc3nc4ccccc4n4cccc34)c1)OCOC2	> 13.5 µM	> 13.5 µM	–
O=C1CC2CCC(C1)S2=O (stereo not drawn)	> 200 µM	> 200 µM	–
COc1ccc(OC)c(CCc2cc(OC)ccc2OC)c1	> 200 µM	1.26 µM	–
COc1ccc(/C=C2\CCC(C)/C(=C\c3ccc(OC)c(OC)c3)C2=O)cc1OC (stereo not drawn)	> 151 µM	7.94 µM	–
CCc1c(C)c2cc(N)ccc2[nH]c1=O	> 200 µM	29.5 µM	–
O=C1c2c(O)cc(O)cc2OC(c2ccc(O)cc2)C1C1C(=O)c2c(O)cc(O)cc2OC1c1ccc(O)cc1 (stereo not drawn)	> 200 µM	46.8 µM	–
Nn1c(-c2ccccc2)nn(C(=O)c2ccccc2)c1=O	> 200 µM	> 200 µM	–
N#CCCN(CCC#N)c1ccc(/C=C2\N=C(c3ccccc3)N(c3ccccn3)C2=O)cc1	> 200 µM	> 200 µM	–
FC(F)(F)c1ccccc1C1SCc2nc3ccccc3n21 (stereo not drawn)	–	–	inactive
NC1CC(=O)c2c(I)sc(I)c21 (stereo not drawn)	> 200 µM	4.47 µM	–
CCCS(=O)(=O)/C(=C(\c1ccc(Br)cc1)S(=O)(=O)CCC)c1ccc(Br)cc1	> 2.63 µM	> 2.63 µM	–
COC(=O)c1c(-c2ccccc2)c(C(O)c2ccccc2)n2ccccc12 (stereo not drawn)	> 26.3 µM	14.1 µM	–
O=c1[nH]c2cc(Cl)ccc2c(O)c1Cc1c(O)c2ccc(Cl)cc2[nH]c1=O	> 100 µM	5.37 µM	–
Cc1nc(-c2cc3ccccc3oc2=O)cs1	–	–	inactive
CCOC(=O)C1C(c2ccco2)C2(C#N)C(=N)OC1(C)C2(C#N)C#N (stereo not drawn)	> 200 µM	64.6 µM	–

Compound	EC50	IC50	outcome
COc1ccc(NC(=S)N/N=C/c2c(C)n(C)n(-c3ccccc3)c2=O)cc1	> 200 µM	115 µM	–
COc1ccc2c(c1)nc1n2C(c2c(F)cccc2Cl)SC1 (stereo not drawn)	> 200 µM	4.17 µM	–
COc1cc(O)c2c(c1)cc(O)c1c(=O)cc(C)oc12	> 195 µM	10.5 µM	–
O=C1CC(NC(=O)C(F)(F)F)c2c(Br)sc(N3CCNCC3)c21 (stereo not drawn)	> 200 µM	162 µM	–
CC(OC1CC(=O)CC2C(=O)C=CC(=O)C12)c1ccccc1 (stereo not drawn)	> 603 µM	3.31 µM	–
COC(=O)CC(C)(NS(=O)c1ccc(C)cc1)c1ccccc1 (stereo not drawn)	> 200 µM	120 µM	–
C/C(=N/c1[nH]c(=O)cc2c1C(=O)CC2)N(C)C	> 200 µM	> 200 µM	–
CCOC1OCN(C)CC1(C)C (stereo not drawn)	> 1450 µM	79.4 µM	–
CC(C)=CC1(C)/C(=N\O)C(C)(CC(C)C)C(=O)N1O (stereo not drawn)	> 933 µM	> 933 µM	–
O=C(O)c1ccc2c(n1)-c1nc3nc4c(cc3cc1CC2)CCc1ccc(C(=O)O)nc1-4	> 200 µM	21.9 µM	–
O=C(NCCc1c(-c2ccccc2)[nH]c2ccccc12)C1CCCCC1	> 200 µM	15.8 µM	–
COc1ccc(/C(C#N)=C\c2ccc(N(C)C)cc2)cc1	> 100 µM	1.23 µM	–
O=C1OC2C(O)COC2(O)C1(O)C(C[N+](=O)[O-])c1ccc(Cl)cc1 (stereo not drawn)	> 200 µM	17 µM	–
CC(=O)NC(CCCCNC(=O)N(CCCl)N=O)C(=O)NCc1ccccc1 (stereo not drawn)	> 603 µM	132 µM	–
O=C(N=C1[Se]C(=Nc2ccccc2)C(=Nc2ccccc2)N1c1ccccc1)c1ccccc1	> 200 µM	107 µM	–
CCOP(=O)(OCC)/C(C#N)=C/c1ccoc1	> 977 µM	> 977 µM	–
O=C(C(=Cn1c(=O)cc[nH]c1=S)C(=O)c1ccccc1)c1ccccc1	–	–	inactive
COc1cc(C2c3cc4c(cc3CCN2C(=O)c2ccccc2)OCO4)cc(OC)c1OC (stereo not drawn)	> 200 µM	13.5 µM	–
C=CCN1CC2CON(C(=O)C(OC)(c3ccccc3)C(F)(F)F)C2C1C(C)C (stereo not drawn)	> 200 µM	37.2 µM	–
CC(C)C(=O)/C=C/c1ccc(Cl)c(Cl)c1	> 200 µM	11 µM	–
